Assay results taken from ChEMBL document CHEMBL1201862, “PubChem BioAssay data set” (2004).
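Each compound was tested at five concentrations against cells in 96-well plates for 48 hours. The concentration for 50% growth inhibition is given as GI50.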 Activity calls are given as the source filed them. Rule as the data show it: active = GI50 up to about 1.1 µM and inactive = higher.

How the values were obtained:
Experiment in all cases: NCI-60 cell line screen, 48 h
SK-MEL-28 = tested on: SK-MEL-28
OVCAR-4 = tested on: OVCAR-4
NCI-H460 = tested on: NCI-H460
MDA-N = tested on: MDA-N
SN12C = tested on: SN12C
786-0 = tested on: 786-0
MCF7 = tested on: MCF7
SK-MEL-5 = tested on: SK-MEL-5
SF-295 = tested on: SF-295
UACC-62 = tested on: UACC-62
Hs-578T = tested on: Hs-578T
T47D = tested on: T47D
MDA-MB-231 = tested on: MDA-MB-231
BT-549 = tested on: BT-549
PC-3 = tested on: PC-3
EKVX = tested on: EKVX
UO-31 = tested on: UO-31
A498 = tested on: A498
CCRF-CEM = tested on: CCRF-CEM
SNB-75 = tested on: SNB-75

SMILES | GI50 (SK-MEL-28) | GI50 (OVCAR-4) | GI50 (NCI-H460) | GI50 (MDA-N) | GI50 (SN12C) | GI50 (786-0) | GI50 (MCF7) | GI50 (SK-MEL-5) | GI50 (SF-295) | GI50 (UACC-62) | GI50 (Hs-578T) | GI50 (T47D) | GI50 (MDA-MB-231) | GI50 (BT-549) | GI50 (PC-3) | GI50 (EKVX) | GI50 (UO-31) | GI50 (A498) | GI50 (CCRF-CEM) | GI50 (SNB-75)
Cc1nc(N)sc1C(=O)Nc1nc[nH]n1 | > 100 µM (inactive) | > 100 µM (inactive) | > 100 µM (inactive) | > 100 µM (inactive) | > 100 µM (inactive) | > 100 µM (inactive) | > 100 µM (inactive) | > 100 µM (inactive) | > 100 µM (inactive) | > 100 µM (inactive) | > 100 µM (inactive) | > 100 µM (inactive) | > 100 µM (inactive) | > 100 µM (inactive) | > 100 µM (inactive) | > 100 µM (inactive) | > 100 µM (inactive) |  |  | 
Cc1ccc(N2CCC3(CC2)OCCO3)cc1 | > 100 µM (inactive) | > 100 µM (inactive) | > 100 µM (inactive) | > 100 µM (inactive) | > 100 µM (inactive) | > 100 µM (inactive) |  | > 100 µM (inactive) | > 100 µM (inactive) | > 100 µM (inactive) | > 100 µM (inactive) | > 100 µM (inactive) | > 100 µM (inactive) | > 100 µM (inactive) | > 100 µM (inactive) | > 100 µM (inactive) | > 100 µM (inactive) | > 100 µM (inactive) | > 100 µM (inactive) | > 100 µM (inactive)
O=C(CC1(O)C(=O)Nc2c(Cl)cc(Cl)cc21)c1ccc(Br)cc1Br (configuration not stated) | 14.3 µM (inactive) | 12.2 µM (inactive) | 16 µM (inactive) | 7.57 µM (inactive) | 13.1 µM (inactive) | 11.3 µM (inactive) | 13.2 µM (inactive) | 7.4 µM (inactive) | 20 µM (inactive) | 12.9 µM (inactive) | 0.0646 µM (active) |  | 14.7 µM (inactive) | 10.5 µM (inactive) | 16.9 µM (inactive) | 19 µM (inactive) | 16 µM (inactive) | 22.1 µM (inactive) | 0.474 µM (active) | 18.1 µM (inactive)
N#Cc1c(C#N)c(-c2ccco2)n(/N=C/c2ccco2)c1N |  | 76.9 µM (inactive) | > 100 µM (inactive) |  | 32.6 µM (inactive) | 33.2 µM (inactive) | 6.5 µM (inactive) | > 100 µM (inactive) | 21.9 µM (inactive) | > 100 µM (inactive) | 17.4 µM (inactive) | 2.93 µM (inactive) | 11.3 µM (inactive) | 22.8 µM (inactive) | > 100 µM (inactive) | 20.1 µM (inactive) | > 100 µM (inactive) | 27.6 µM (inactive) | > 100 µM (inactive) | 7.29 µM (inactive)
CC12CN(CC[N+](C)(C)C)CC1(C)C1CCC2O1 (configuration not stated) | > 100 µM (inactive) | > 100 µM (inactive) | > 100 µM (inactive) |  | > 100 µM (inactive) | > 100 µM (inactive) | > 100 µM (inactive) | > 100 µM (inactive) | > 100 µM (inactive) | > 100 µM (inactive) | > 100 µM (inactive) | > 100 µM (inactive) | > 100 µM (inactive) | > 100 µM (inactive) | > 100 µM (inactive) | > 100 µM (inactive) | > 100 µM (inactive) | > 100 µM (inactive) | > 100 µM (inactive) | > 100 µM (inactive)
CCOC(=O)N(C)CCC1CC=CC(=O)C1c1cccc(OC)c1OC (configuration not stated) |  | 28 µM (inactive) | 16.7 µM (inactive) | 13.1 µM (inactive) | 17.3 µM (inactive) | 17 µM (inactive) | 16.9 µM (inactive) | 9.53 µM (inactive) | 31 µM (inactive) | 15.6 µM (inactive) | 71.4 µM (inactive) | 21.4 µM (inactive) | 26.1 µM (inactive) | 15 µM (inactive) | 12.2 µM (inactive) | 25.8 µM (inactive) | 16.6 µM (inactive) | 33.3 µM (inactive) | 10.6 µM (inactive) | 
COc1cc(OCc2ccccc2)c2c(CCC(=O)O)cc(=O)oc2c1.COc1cc(OCc2ccccc2)cc2oc(=O)cc(CCC(=O)O)c12 | 42.3 µM (inactive) | 47.6 µM (inactive) |  | > 100 µM (inactive) |  | 92.5 µM (inactive) | 2.59 µM (inactive) | 70.6 µM (inactive) |  | 63.2 µM (inactive) | 50.6 µM (inactive) |  | 29.1 µM (inactive) | 57.5 µM (inactive) | 56.8 µM (inactive) | 36.8 µM (inactive) | 43.4 µM (inactive) | 14.7 µM (inactive) | 36.7 µM (inactive) | 60.1 µM (inactive)
NNC(=O)c1ccccc1Nc1nc(-c2cccs2)nc2ccc(Br)cc12 | 45.5 µM (inactive) | 6.7 µM (inactive) | 87.3 µM (inactive) |  | 37.2 µM (inactive) | 49.5 µM (inactive) | 49.5 µM (inactive) | 74 µM (inactive) | 51.8 µM (inactive) | > 100 µM (inactive) | > 100 µM (inactive) | 47.8 µM (inactive) | > 100 µM (inactive) | 84.1 µM (inactive) | 44.4 µM (inactive) | > 100 µM (inactive) | > 100 µM (inactive) | > 100 µM (inactive) | > 100 µM (inactive) | 45.4 µM (inactive)
CCOC(=O)Nc1cc2c(c(N)n1)N=C(c1ccccc1)[C@H](C)N2 [MIVOBULIN ISETHIONATE] |  | 0.00363 µM (active) | < 0.0001 µM (active) | < 0.0001 µM (active) | 0.0475 µM (active) | 0.00215 µM (active) | < 0.0001 µM (active) | < 0.0001 µM (active) | < 0.0001 µM (active) | < 0.0001 µM (active) | < 0.0001 µM (active) |  | < 0.0001 µM (active) | 0.01 µM (active) | < 0.0001 µM (active) | 0.0653 µM (active) | 0.000303 µM (active) | 0.0299 µM (active) | < 0.0001 µM (active) | 0.000215 µM (active)
c1ccc([B-]2(c3ccccc3)OCCc3cccc[n+]32)cc1 | 47.8 µM (inactive) | 82.4 µM (inactive) | 60.3 µM (inactive) | 50.2 µM (inactive) | 59.3 µM (inactive) | 70.1 µM (inactive) |  | 41.2 µM (inactive) | 67 µM (inactive) | 58.3 µM (inactive) | 37.7 µM (inactive) | 41 µM (inactive) | 84.5 µM (inactive) | 31.6 µM (inactive) | 18.5 µM (inactive) | 91.8 µM (inactive) | 23.7 µM (inactive) | 19.6 µM (inactive) | 23.4 µM (inactive) | 
O=C(Nc1cccc(F)c1)c1cc2ccc(O)cc2o/c1=N\c1cccc(F)c1 | 5.09 µM (inactive) | 3.59 µM (inactive) | 4.26 µM (inactive) | 6.35 µM (inactive) | 5.96 µM (inactive) | 7.85 µM (inactive) | 3.58 µM (inactive) | 3.6 µM (inactive) | 13.6 µM (inactive) | 5.57 µM (inactive) | 3.09 µM (inactive) | 3.27 µM (inactive) |  | 4.82 µM (inactive) | 17.9 µM (inactive) | 3.78 µM (inactive) | 4.36 µM (inactive) | 33 µM (inactive) | 2.22 µM (inactive) | 
CC(Oc1ccc(Cl)cc1Cl)C(=O)NN1C(=O)CC(=O)N(c2ccccc2)C1=S (configuration not stated) | 98.6 µM (inactive) | 45.8 µM (inactive) | 62.8 µM (inactive) |  | 52.4 µM (inactive) | 60.3 µM (inactive) | 35.5 µM (inactive) | 47.4 µM (inactive) | 43.4 µM (inactive) | 37.5 µM (inactive) | > 100 µM (inactive) | 43.2 µM (inactive) | 65.9 µM (inactive) | 59.6 µM (inactive) | 40.5 µM (inactive) | 69.5 µM (inactive) | 64.7 µM (inactive) | 26.9 µM (inactive) |  | 54.1 µM (inactive)
c1ccc(-c2csc3c2-n2cccc2C3N2CCCC2)cc1 (configuration not stated) | 24.7 µM (inactive) | 34.4 µM (inactive) | 44.4 µM (inactive) | 34.4 µM (inactive) | > 100 µM (inactive) | 58.1 µM (inactive) | 30.5 µM (inactive) | 4.84 µM (inactive) | 23.8 µM (inactive) |  | 62.1 µM (inactive) |  | 35.6 µM (inactive) | 3.3 µM (inactive) | 32.7 µM (inactive) | 13.8 µM (inactive) | > 100 µM (inactive) | 76 µM (inactive) | 70.1 µM (inactive) | 14.9 µM (inactive)
CCCCCCCCCCCCC(O)[C@H]1CC[C@H](C(O)CCCCCC(=O)CCCCC2CC(C(C)=O)C(=O)O2)O1 (some centres not stated) | 16.9 µM (inactive) | 4.09 µM (inactive) | 3.03 µM (inactive) | 3.68 µM (inactive) | 7.24 µM (inactive) | 12.9 µM (inactive) | 3.47 µM (inactive) | 0.802 µM (active) | 4.95 µM (inactive) | 4.67 µM (inactive) | 15.4 µM (inactive) |  | 11 µM (inactive) | 15 µM (inactive) | 4.95 µM (inactive) | 5.69 µM (inactive) | 8.97 µM (inactive) | 13.3 µM (inactive) | 3.17 µM (inactive) | 10.5 µM (inactive)
CC(C)(Cl)C(Br)CCC(C)(Br)C(Br)CBr (configuration not stated) | 17.2 µM (inactive) | 18.7 µM (inactive) | 15.3 µM (inactive) | 19.5 µM (inactive) | 20 µM (inactive) | 17.4 µM (inactive) |  | 14.6 µM (inactive) | 17.7 µM (inactive) | 17.7 µM (inactive) | 21.5 µM (inactive) | 18.7 µM (inactive) | 12.9 µM (inactive) | 22.3 µM (inactive) | 24.9 µM (inactive) | 25.4 µM (inactive) | 19 µM (inactive) | 19.3 µM (inactive) | 10.5 µM (inactive) | 
